We go through one molecule from paper PMC5654471 (Bioorganic & medicinal chemistry letters, 2016).

SMILES strings stand for the structures.

For data set [1], the system named is MOLM-14 cells. The data set can be described thus: ROS production. It is filed as cell-based. Conditions: approximately 2 hours post-treatment.
Another data set relates to female NSG mice. Kind of data set: Safety and tolerability in NSG mice. It is filed as in vivo.
The subject of another data set is THP-1 cells. The data set can be described thus: ROS production. The data set is classed as cell-based. Conditions: approximately 2 hours post-treatment.
Data set [2] concerns MOLM-14 cells. Kind of data set: Double strand DNA breaks, γ-H2Ax immunofluorescence. The data set is classed as cell-based. The note with it: 24 hours exposure, 200 nM, 1.0 and 2.0 µM.

In the case of `O=C1C(C2=C(N3CC3)C(=O)c3ccccc3C2=O)=C(N2CC2)C(=O)c2ccccc21` [Compound 3, 3,3'-Di(aziridin-1-yl)-[2,2'-binaphthalene]-1,1',4,4'-tetraone], the “ROS production (RFU)” value in the data set on MOLM-14 cells [1] and in the data set with THP-1 cells was “dose-dependent increase in ROS production” each time. In addition, the tolerability result in the data set with female NSG mice (5, 10 and 15 mg/kg IP for 5 consecutive days, one week observation) is reported as “tolerated the compound well”. In the data set on female NSG mice (mouse, in vivo, ip), the “mean body weight loss” value is no more than 10%. In addition, the “γ-H2Ax phosphorylation (double strand DNA breaks)” value in the data set on MOLM-14 cells [2] is “substantial γ-H2Ax phosphorylation”.
